The record followed here is EP4647061A1, “COMPOSITION CONTAINING RETINOL AND SYNERGIST AND USE THEREOF” (Guangzhou Jiyan Cosmetics Technology Co., Ltd., priority 2024, dated 2025).

Common to all, as to format: cell-based
The test system of data set [1] is COL III (type III collagen). In words: Transcription of type III collagen (COL III) by qRT-PCR in UVA-stimulated fibroblast model. The settings on record: for PCR Transcription of Type III Collagen (COL III) Up-regulation Rate Compared with NC Group: UVA 30 J/cm^2, (sample - NC)/NC x 100%; for PCR Transcription of Type III Collagen (COL III) Mean Value: UVA 30 J/cm^2, mRNA by 2^-ΔΔCT normalised to BC = 1 (NC 0.67), dosing: TGF-β1 100 ng/mL, Pro-xylane 0.5000%, tetrapeptide-1 0.00109%, encapsulated retinol 0.00313%, combination at the same concentrations, 1440 min. On the procedure: (§1) Testing method: based on UVA-stimulated fibroblast model, transcription of type I and type III collagens was tested using qRT-PCR method, and specific steps were as follows: • 1) Cell inoculation: after resuscitation of fibroblasts, when a plating rate reached about 60%, cells were inoculated in a 6-well plate, and incubated overnight in an incubator (37 °C, 5% CO2). • 2) Liquid formulation: according to test schemes (see TABLE 1 and TABLE 2), test substance working solutions were formulated respectively according to mass ratios. TABLE 1 COL I Detection Scheme
(§2) 3) Dosing: according to the test schemes in TABLE 1 and TABLE 2, when the plating rate of the cells in the 6-well plate reached about 30%-50%, dosing was performed for the groups respectively, with each group in triplicate. The blank control group and the negative control group were added with 2 mL of a culture solution per well, the positive control group was added with 2 mL of a TGF-β1-containing culture solution per well, and sample group was added with 2mL of a test sample-containing culture solution at corresponding concentration per well. After the dosing was completed, the 6-well plate continued to be cultured in the CO2 incubator (37 °C, 5% CO2) for 24 h.
(§3) 4) UVA stimulation: according to test groups, except the blank control group, other groups were all subjected to UVA irradiation, with an irradiation dosage of 30 J/cm^2. After the irradiation was finished, culture was continued in the CO2 incubator (37 °C, 5% CO2) for 24 h.
(§4) 5) Cell collection: after incubation was ended, an original solution was sucked out and discarded, PBS cleaning was performed twice, and each well was added with 1 mL of RNAiso Plus, to pipet and lyse the cells, after which samples were collected.
(§5) 6) Detection of gene expression: RNA was extracted and subjected to reverse transcription to cDNA to undergo fluorescence quantitative PCR detection, and result was calculated by a 2^-△△CT method.
(§6) 7) Calculation of up-regulation rate: Up-regulation rate (%) = (Sample group−Negative control group)/(Negative control group) × 100% [formula]
(§7) 8) Data analysis: statistical analysis was performed using t-test method, and normalization processing was performed on amplification factors of mRNA in BC group, where all statistical analysis was double-tailed. Compared with the blank group, significance is expressed by ^#, p<0.05 is expressed by ^#, p<0.01 is expressed by ^##; compared with the negative blank group, significance is expressed by*, p<0.05 is expressed by *, p<0.01 is expressed by **.

A further data set concerns COLI (type I collagen). Nature of the data set: Transcription of type I collagen (COL I) by qRT-PCR in UVA-stimulated fibroblast model. The settings on record: for PCR Transcription of Type I Collagen (COL I) Up-regulation Rate Compared with NC Group: UVA 30 J/cm^2, (sample - NC)/NC x 100%; for PCR Transcription of Type I Collagen (COL I) Mean Value: UVA 30 J/cm^2, mRNA by 2^-ΔΔCT normalised to BC = 1 (NC 0.43), dosing: TGF-β1 100 ng/mL, Pro-xylane 0.5000%, tetrapeptide-1 0.00109%, encapsulated retinol 0.00313%, gum 0.00222%, combinations at the same concentrations, 1440 min. The protocol:
as §1, §2, §3, §4, §5, §6, §7
A general note: Real-time PCR tracks product formation cycle by cycle.

Data set [2] relates to CRABP2 cellular retinoic acid binding protein 2. In words: Transcription of CRABP2 by qRT-PCR in UVA-stimulated fibroblast model. On the procedure: Testing method: based on UVA-stimulated fibroblast model, transcription of CRABP2 was tested using qRT-PCR method, and specific steps were as follows: • 1) Cell inoculation: after resuscitation of cells, when a plating rate reached about 60%, the cells were inoculated in a 6-well plate, and incubated overnight in an incubator (37 °C, 5% CO2). • 2) Liquid formulation: according to a test scheme (see TABLE 5), test substance working solutions were formulated respectively according to mass ratios. TABLE 5 CRABP2 Detection Scheme
as §2, with “According” for “according”, “scheme” for “schemes”, “5,” for “1 and TABLE 2,”, “2 mL” for “2mL”, “h. […]” for “h.”
6) Detection of gene expression: RNA was extracted and subjected to reverse transcription to cDNA to undergo fluorescence quantitative PCR detection, and result was calculated by a 2^-△△CT method. […]

Consider `CC(O)C[C@@H]1OC[C@@H](O)[C@H](O)[C@H]1O` (stereo partly shown) [Comparative Example 1, Pro-xylane, reference compound], for which, in data set [1], the “PCR Transcription of Type III Collagen (COL III) Up-regulation Rate Compared with NC Group” value was determined as 31.34% and the “PCR Transcription of Type III Collagen (COL III) Mean Value” is 0.88. For the same compound, in the data set on COLI (type I collagen), the “PCR Transcription of Type I Collagen (COL I) Up-regulation Rate Compared with NC Group” value is listed as 134.88% and the “PCR Transcription of Type I Collagen (COL I) Mean Value” stood at 1.01.

On to Tetrapeptide-1 [Comparative Example 2], for which, in data set [1], the “PCR Transcription of Type III Collagen (COL III) Up-regulation Rate Compared with NC Group” value is given as 5.97% and the “PCR Transcription of Type III Collagen (COL III) Mean Value” is 0.71. Besides, the “Transcription of Cellular Retinoic Acid Binding Protein 2 (CRABP2) Up-regulation Rate Compared with NC Group” value in data set [2] (UVA 30 J/cm^2, (sample - NC)/NC x 100%) was 20.83%. The “Transcription of Cellular Retinoic Acid Binding Protein 2 (CRABP2) Mean Value” in data set [2] (UVA 30 J/cm^2, mRNA by 2^-ΔΔCT normalised to BC = 1 (NC 0.48), dosing: TGF-β1 100 ng/mL, gum 0.00222%, encapsulated retinol 0.00313%, tetrapeptide-1 0.00109%, combinations at the same concentrations, 1440 min) is 0.58. Also, in the data set with COLI (type I collagen), the “PCR Transcription of Type I Collagen (COL I) Up-regulation Rate Compared with NC Group” value amounted to 25.58% and the “PCR Transcription of Type I Collagen (COL I) Mean Value” was found to be 0.54.
